The values that follow come from US20240327361A1, “RADIOLABELED COMPOSITIONS AND METHODS OF USE THEREOF” (The Research Foundation for the State University of New York, priority 2021, published 2024).

The subject of one data set is class-lla HDACs. Description: In vivo microPET imaging of healthy rats (biodistribution, self-blocking with cold TMP195). Set-up: species or system Sprague Dawley rats. The conditions noted are these: for biodistribution / uptake in brain regions: rat brain PET. The procedure:
Sprague Dawley rats (200-250 g, N=3,) were anesthetized with 3% isoflurane in oxygen and maintained at 2% isoflurane in oxygen throughout the imaging studies. Anesthetized rat was placed in the uPET (Siemens, Knoxville, TN) with the skull positioned in the center of the field of view. The tracer (500-700 μCi/animal) was administered intravenously into each Rat (n=3 per group) in a total volume 0.5-1.0 ml solution. Dynamic PET images were obtained over 60 minutes. Images were reconstructed with attenuation correction using an ordered subset expectation maximization (OSEM2D) algorithm with 16 subsets and 4 iterations.
Dynamic PET images were analyzed with Inveon Research Workplace 4.0 (Siemens, Knoxville, TN) and AMIDE software using manual segmentation of regions of interest (ROI), were drawn over ROI on the decay-corrected coronal images. The radioactivity accumulation (tracer uptake) within the ROI were obtained as percentage of the injected dose (ID) per gram of tissue (% ID/g). The time-activity curve (TAC) was generated from the region of interest (ROI) by plotting the radioactivity/cc vs time.
(§1) Anesthetized Sprague Dawley rats (200-250 g, N=6) were placed in the Inveon uPET (Siemens, Knoxville, TN) in the supine position with the skull positioned in the center of the field of view. [^18F]-NT160 was formulated in ethanol:polysorbate 80:saline (10:10:80%) and it was stable in this formulation at 37° C. at least for 4 hours. [^18F]-NT160 (18.5-25.9 MBq/animal) was administered via the tail-vein injection in a total volume 0.5-1.0 ml. Dynamic PET images were obtained over 60 minutes followed by CT imaging (15 min scan). Images were reconstructed with attenuation correction using an ordered subset expectation maximization (OSEM2D) algorithm with 16 subsets and 4 iterations. PET image analysis was performed using the AMIDE software by using manual segmentation of regions of interest (ROI), including: whole brain, cortex, hippocampus, thalamus, cerebellum, and brain stem. Rat Brain Atlas was used for alignment and identification of specific anatomical markers of the brain. The time-activity curve (TAC) was generated from the region of interest (ROI) by plotting the radioactivity/cc vs time. Levels of accumulation of the radiotracer in tissues were expressed as standard uptake values (SUV) that were calculated for the regions of interest (ROI) using the AMIDE software. The SUV is defined as the ratio of the tissue radioactivity concentration C (e.g. expressed as Bq/g tissue) at given time point post injection T, and the injected dose (e.g. in Bq, decay-corrected to the same time T), and normalized by the body weight in grams. GraphPad Prism (Graph Pad Software La Jolla, CA) was used for image data analysis. [^18F]-NT2-160 was also prepared by the same or similar procedure.

Data set [1] is described as follows: Stability of the tracer in its injection formulation. The conditions noted are these: ethanol:polysorbate 80:saline (10:10:80%), 37° C. It is filed as physicochemical. The procedure: as §1, with “PET image analysis was performed using the AMIDE software by using manual segmentation of regions of interest (ROI), including: whole brain, cortex, hippocampus, thalamus, cerebellum, and brain stem. Rat Brain Atlas was used for alignment and identification of specific anatomical markers of the brain.” left out, “GraphPad Prism (Graph Pad Software La Jolla, CA) was used for image data analysis. [^18F]-NT2-160 was also prepared by the same or similar procedure.” left out

Data set [2] is described as follows: Partition coefficient, octanol/PBS shake flask method. It counts as physicochemical. To be noted: phosphate buffer pH 7.4.
Protocol: The log P was determined by partitioning the tracer between octanol and phosphate buffer at pH 7.4 and measuring the concentration of the tracer in each layer. The radioactivity of each layer is counted using gamma-counter. The partition coefficient (P) is calculated as [radioactivity (cpm/ml) in 1-octanol)]/[(radioactivity (cpm/ml) in phosphate buffer pH 7.4].
The mark [3] stands for this setting: rat, co-administered TMP195 2 mg/kg.

As for `O=C(NC1CCN(Cc2ccccc2)C1)c1ccc(-c2noc(C(F)(F)[18F])n2)cc1` (stereo not shown) [[^18F]-NT2-160], the “biodistribution / uptake in brain regions” value in the data set on class-lla HDACs was “heterogenous”.

`C[C@H](CN(C)Cc1ccccc1)NC(=O)c1ccc(-c2noc(C(F)(F)[18F])n2)cc1` [[^18F]-NT160] registered a stable in formulation in data set [1] of no less than 4 h.

For orientation: logD means lipophilicity at a set pH, counting ionised and neutral species. Consider `CC(C)(CNC(=O)c1cccc(-c2noc(C(F)(F)[18F])n2)c1)c1coc(-c2ccccc2)n1` [^18F-NT57], for which the “tracer uptake in the harderian gland” value in the data set with class-lla HDACs (rat) was “neither specific nor unique”. Also, the “biodistribution / uptake in brain regions” value in the data set on class-lla HDACs is listed as “heterogeneous”. In addition, the “uptake in the wrist” value in the data set on class-lla HDACs (rat, baseline and blocking with TMP195) was “intense and blockable”. In the data set on class-lla HDACs (rat, cervical and interscapular BAT, 60 min), the “uptake in the brown fat adipose tissues (BATs)” value is “intense and increased uptake”. Besides, in the data set on class-lla HDACs (setting [3]), the “brain uptake with cold dose of TMP195 vs baseline (self-blocking)” value is listed as “reduced” and the “tracer uptake in BATs with cold dose of TMP195 (blocking)” value was “reduced”. Also, in the data set with class-lla HDACs (rat, dynamic PET over 60 min), the “accumulation in the liver” value is given as “accumulated heavily” and the “clearance from most normal tissues (heart, brain, muscle)” value is “rapid clearance”. Further, the “peak uptake in the brain” value with class-lla HDACs (rat, intravenous tracer, dynamic PET over 60 min) was roughly 1 % ID/g. Further, in the data set with class-lla HDACs (rat, not affected by blocking), the “tracer uptake in the muscle” value was “low and nonspecific”. Moreover, the logD in data set [2] was greater than 6.
